The text below walks through data of ChEMBL document CHEMBL3779806, “5-Carba-pterocarpens: A new scaffold with anti-HCV activity” (Eur J Med Chem, 2016).

A word on the CC50: it is the concentration at which the toxic effect on the cells reaches its halfway point. In general, EC50 refers to the concentration that produces a half-maximal response. The inhibition is the share of the control response that was lost under treatment.

Calls of active or inactive are those of the source. The rule behind the calls is not given here. A value given as a limit tells only on which side of the number the result lay.

System in the first series: not listed separately
The experiment in a line: Cytotoxicity against human Huh7.5 cells assessed as reduction in cell viability after 48 hrs by MTS assay. It counts as cell-based, Huh-7.
Conditions: not given
On the technique in general: Formazan colour is commonly taken as a measure of viable cells.
On to `Oc1ccc2c(c1)-c1oc3ccccc3c1CC2`, for which the CC50 at 48 h came to 96.8 µM.
Still for that read-out and setting: the result for `Oc1ccc2c(c1)-c1oc3cc(O)ccc3c1CC2` reads 157 µM.
Still for that read-out and setting: in the case of `c1ccc2c(c1)CCc1c-2oc2ccccc12` it was above 200 µM; in that of `COc1ccc2c(c1)CCc1c-2oc2cc(O)ccc12`, 106 µM; in that of `Oc1ccc2c3c(oc2c1)-c1cccc(O)c1CC3`, 59.5 µM.
Still for that read-out and setting: the result for `Oc1ccc2c3c(oc2c1)-c1ccccc1CC3` reads 99.9 µM; that for `Oc1ccc2c3c(oc2c1)-c1cc(O)c(O)cc1CC3`, 115 µM; that for `Oc1ccc2c(c1)CCc1c-2oc2cc(O)ccc12`, 84.5 µM.

A further series relates to Hepatitis C virus. The experiment in a line: Antiviral activity against HCV genotype 1b infected in Huh7/Rep-Feo1b cells assessed as inhibition of viral RNA replication after 48 hrs by luciferase reporter gene assay. It counts as functional, organism-based, Hepacivirus hominis. To be noted: Huh-7, 48 h.
For `Oc1ccc2c(c1)-c1oc3ccccc3c1CC2`, the EC50 was 27.9 µM.
Same read-out and setting: in the case of `c1ccc2c(c1)CCc1c-2oc2ccccc12` it was 40.7 µM; in that of `COc1ccc2c(c1)CCc1c-2oc2cc(O)ccc12`, 19.9 µM; in that of `Oc1ccc2c3c(oc2c1)-c1cccc(O)c1CC3`, 5.9 µM.
On the same count and under the same terms, the result for `Oc1ccc2c3c(oc2c1)-c1ccccc1CC3` reads 13.9 µM; that for `Oc1ccc2c3c(oc2c1)-c1cc(O)c(O)cc1CC3`, 5.5 µM; that for `Oc1ccc2c(c1)CCc1c-2oc2cc(O)ccc12`, 12.3 µM.

System in a further series: not listed separately
Description: Selectivity index, ratio of CC50 for human Huh7.5 cells to EC50 for HCV genotype 2a infected in Huh7.5-FGR-JC1-Rluc2A cells. Further details: species or system Huh-7.
Conditions: not given
`Oc1ccc2c(c1)-c1oc3ccccc3c1CC2`: the “Ratio CC50/EC50” value amounted to 42.1.
The same measure, in the same setting: the result for `Oc1ccc2c(c1)-c1oc3cc(O)ccc3c1CC2` reads 26.1.
The same measure, in the same setting: the result for `c1ccc2c(c1)CCc1c-2oc2ccccc12` reads above 13; that for `COc1ccc2c(c1)CCc1c-2oc2cc(O)ccc12`, 70.6; that for `Oc1ccc2c3c(oc2c1)-c1cccc(O)c1CC3`, 24.7.
Same read-out and setting: in the case of `Oc1ccc2c3c(oc2c1)-c1ccccc1CC3` it was 15.8; in that of `Oc1ccc2c3c(oc2c1)-c1cc(O)c(O)cc1CC3`, 18.8.
With `Oc1ccc2c(c1)CCc1c-2oc2cc(O)ccc12`, the “Ratio CC50/EC50” value amounted to 44.4.

The subject of the next series is Hepatitis C virus. The experiment in a line: Antiviral activity against HCV genotype 2a infected in Huh7.5-FGR-JC1-Rluc2A cells assessed as inhibition of viral RNA replication at 50 uM after 48 hrs by luciferase reporter gene assay relative to control. It counts as functional, Hepacivirus hominis.
Conditions: not given
(In general: A reporter such as luciferase makes a cellular process visible.)
With `Oc1ccc2c(c1)-c1oc3ccccc3c1CC2`, the inhibition at 50 µM came out at 98.4%.
Consider `Oc1ccc2c(c1)-c1oc3cc(O)ccc3c1CC2`, for which the inhibition at 50 µM came out at 97.8%.
Same read-out and setting: in the case of `c1ccc2c(c1)CCc1c-2oc2ccccc12` it was 86.5%.
The same measure, in the same setting: the result for `COc1ccc2c(c1)CCc1c-2oc2cc(O)ccc12` reads 99.8%.
On the same count and under the same terms, in the case of `Oc1ccc2c3c(oc2c1)-c1cccc(O)c1CC3` it was 99.7%; in that of `Oc1ccc2c3c(oc2c1)-c1ccccc1CC3`, 97.2%.
As for `Oc1ccc2c3c(oc2c1)-c1cc(O)c(O)cc1CC3`, the inhibition at 50 µM came out at 96.9%.
Still for that read-out and setting: the result for `Oc1ccc2c(c1)CCc1c-2oc2cc(O)ccc12` reads 99.6%.

System in another series: not listed separately
Description: Selectivity index, ratio of CC50 for human Huh7.5 cells to EC50 for HCV genotype 1b infected in Huh7/Rep-Feo1b cells. Further details: species or system Huh-7.
Conditions: not given
Regarding `Oc1ccc2c(c1)-c1oc3ccccc3c1CC2`, the “Ratio CC50/EC50” value came out at 3.5.
Same read-out and setting: the result for `c1ccc2c(c1)CCc1c-2oc2ccccc12` reads above 4.9.
The same measure, in the same setting: the result for `COc1ccc2c(c1)CCc1c-2oc2cc(O)ccc12` reads 5.3; that for `Oc1ccc2c3c(oc2c1)-c1cccc(O)c1CC3`, 10.1; that for `Oc1ccc2c3c(oc2c1)-c1ccccc1CC3`, 7.2.
Still for that read-out and setting: the result for `Oc1ccc2c3c(oc2c1)-c1cc(O)c(O)cc1CC3` reads 20.9; that for `Oc1ccc2c(c1)CCc1c-2oc2cc(O)ccc12`, 6.8.

The next series relates to Hepacivirus hominis. The experiment in a line: Inhibition of recombinant HCV NS5B RNA dependent RNA polymerase activity assessed as reduction in [alpha-32P]UTP incorporation using poly(rA)-U12 as template/primer at 50 uM incubated for 1 hr by liquid scintillation counting method relative to control.
Conditions: not given
Take `Oc1ccc2c(c1)-c1oc3ccccc3c1CC2`: the inhibition was found to be 38.5%.
On the same count and under the same terms, the result for `Oc1ccc2c(c1)-c1oc3cc(O)ccc3c1CC2` reads 33.1%; that for `c1ccc2c(c1)CCc1c-2oc2ccccc12`, “inactive”; that for `COc1ccc2c(c1)CCc1c-2oc2cc(O)ccc12`, 36.2%.
Same read-out and setting: the result for `Oc1ccc2c3c(oc2c1)-c1cccc(O)c1CC3` reads 38%; that for `Oc1ccc2c3c(oc2c1)-c1ccccc1CC3`, “inactive”.
On the same count and under the same terms, in the case of `Oc1ccc2c3c(oc2c1)-c1cc(O)c(O)cc1CC3` it was “inactive”; in that of `Oc1ccc2c(c1)CCc1c-2oc2cc(O)ccc12`, “inactive”.

System in another series: not listed separately
Description: Cytotoxicity against hamster BHK cells assessed as cell viability at 50 uM after 40 hrs by luciferase reporter gene assay relative to control. To be noted: read-out: Activity. It counts as cell-based, Mesocricetus auratus.
`Oc1ccc2c(c1)-c1oc3ccccc3c1CC2`: the viability at 40 h, 50 µM is at least 80%.
For `Oc1ccc2c(c1)-c1oc3cc(O)ccc3c1CC2`, the viability at 40 h, 50 µM was at least 80%.
Still for that read-out and setting: the result for `c1ccc2c(c1)CCc1c-2oc2ccccc12` reads at least 80%; that for `COc1ccc2c(c1)CCc1c-2oc2cc(O)ccc12`, at least 80%; that for `Oc1ccc2c3c(oc2c1)-c1cccc(O)c1CC3`, at least 80%.
On the same count and under the same terms, the result for `Oc1ccc2c3c(oc2c1)-c1ccccc1CC3` reads at least 80%; that for `Oc1ccc2c3c(oc2c1)-c1cc(O)c(O)cc1CC3`, at least 80%; that for `Oc1ccc2c(c1)CCc1c-2oc2cc(O)ccc12`, at least 80%.

In another series the test system is Hepatitis C virus. Description: Antiviral activity against HCV genotype 1b infected in Huh7/Rep-Feo1b cells assessed as inhibition of viral RNA replication at 50 uM after 48 hrs by luciferase reporter gene assay relative to control. It counts as functional, Hepacivirus hominis. To be noted: Huh-7, 48 h.
With `Oc1ccc2c(c1)-c1oc3ccccc3c1CC2`, the inhibition at 50 µM amounted to 95.1%.
`Oc1ccc2c(c1)-c1oc3cc(O)ccc3c1CC2`: the inhibition at 50 µM is 49.3%.
Same read-out and setting: the result for `c1ccc2c(c1)CCc1c-2oc2ccccc12` reads 50.7%; that for `COc1ccc2c(c1)CCc1c-2oc2cc(O)ccc12`, 97.9%.
Still for that read-out and setting: the result for `Oc1ccc2c3c(oc2c1)-c1cccc(O)c1CC3` reads 96.7%.
Still for that read-out and setting: the result for `Oc1ccc2c3c(oc2c1)-c1ccccc1CC3` reads 90.1%; that for `Oc1ccc2c3c(oc2c1)-c1cc(O)c(O)cc1CC3`, 98.6%; that for `Oc1ccc2c(c1)CCc1c-2oc2cc(O)ccc12`, 98.1%.

In the next series the test system is Hepacivirus hominis. The experiment in a line: Inhibition of HCV NS5B RNA dependent RNA polymerase activity infected in BHK-NS5B-FRLuc cells at 50 uM incubated for 40 hrs by dual luciferase reporter gene assay relative to control. It counts as cell-based.
Conditions: not given
For `Oc1ccc2c(c1)-c1oc3ccccc3c1CC2`, the inhibition worked out at 39.4%.
Same read-out and setting: the result for `Oc1ccc2c(c1)-c1oc3cc(O)ccc3c1CC2` reads 36.1%; that for `c1ccc2c(c1)CCc1c-2oc2ccccc12`, “inactive”; that for `COc1ccc2c(c1)CCc1c-2oc2cc(O)ccc12`, 37%.
Still for that read-out and setting: the result for `Oc1ccc2c3c(oc2c1)-c1cccc(O)c1CC3` reads 33.3%; that for `Oc1ccc2c3c(oc2c1)-c1ccccc1CC3`, “inactive”.
Still for that read-out and setting: in the case of `Oc1ccc2c3c(oc2c1)-c1cc(O)c(O)cc1CC3` it was “inactive”; in that of `Oc1ccc2c(c1)CCc1c-2oc2cc(O)ccc12`, “inactive”.

The test system of a further series is Hepatitis C virus. The experiment in a line: Antiviral activity against HCV genotype 2a infected in Huh7.5-FGR-JC1-Rluc2A cells assessed as inhibition of viral RNA replication after 48 hrs by luciferase reporter gene assay. It counts as functional, organism-based, Hepacivirus hominis.
Conditions: not given
Consider `Oc1ccc2c(c1)-c1oc3ccccc3c1CC2`, for which the EC50 stood at 2.3 µM.
The same measure, in the same setting: in the case of `Oc1ccc2c(c1)-c1oc3cc(O)ccc3c1CC2` it was 6 µM; in that of `c1ccc2c(c1)CCc1c-2oc2ccccc12`, 15.3 µM.
On the same count and under the same terms, in the case of `COc1ccc2c(c1)CCc1c-2oc2cc(O)ccc12` it was 1.5 µM.
The same measure, in the same setting: the result for `Oc1ccc2c3c(oc2c1)-c1cccc(O)c1CC3` reads 2.4 µM; that for `Oc1ccc2c3c(oc2c1)-c1ccccc1CC3`, 5.7 µM.
In the case of `Oc1ccc2c3c(oc2c1)-c1cc(O)c(O)cc1CC3`, the EC50 is 6.1 µM.
Regarding `Oc1ccc2c(c1)CCc1c-2oc2cc(O)ccc12`, the EC50 amounted to 1.9 µM.
